Data as given in patent US20250339421A1, “METHODS FOR TREATING BILE DUCT CANCERS WITH TIVOZANIB” (The U.S.A., as represented by the Secretary, Department of …, priority 2021, published 2025).
Structures can show the parent of a compound that is named as a salt.

Key:
EGI-1 cell line = assay: subcutaneous xenograft model (EGI-1 cell line); assay type: in vivo, athymic nude mice
Experimental: FIG. 3G is a photograph of tumors obtained in a subcutaneous xenograft model using athymic nude mice (top row=vehicle treated; bottom row=20 mg/kg/day Tivozanib treatment for 28 days).
FIG. 3L provides a photograph of tumors obtained in an EGI-1 CCA cell line subcutaneous xenograft model following 28 days of treatment with vehicle or bevacizumab (top row=vehicle treated; bottom row=bevacizumab). Bevacizumab was provided at the standard murine dose. […] However, the reduction was not as dramatic as that seen with tivozanib alone (see FIG. 3H). As bevacizumab is an anti-VEGF antibody, the reduction seen in tumor volume provided by tivozanib cannot be attributed to its VEGF inhibitory properties alone; otherwise, a similar reduction would have been expected with bevacizumab.
To confirm that the tumoricidal effects of tivozanib were not due to its activity as a VEGF inhibitor, but could be attributed to action on SLK, the antitumor effects of bevacizumab, an anti-VEGF antibody, on EGI-1 cholangiocarcinoma xenografts were evaluated. […] If the decrease in tumor size with tivozanib was due solely to its activity as a VEGF inhibitor, bevacizumab should have produced similar results.

[1] = tested on: various tumor cell types including human renal cell carcinoma; conditions: tumor xenograft models in mice and rats; cited from earlier work
SLK = SLK (Homo sapiens, UniProt Q9H2G2); assay: kinome inhibition screen; conditions: FIG. 3A
SLK, sequence (Q9H2G2 whole entry): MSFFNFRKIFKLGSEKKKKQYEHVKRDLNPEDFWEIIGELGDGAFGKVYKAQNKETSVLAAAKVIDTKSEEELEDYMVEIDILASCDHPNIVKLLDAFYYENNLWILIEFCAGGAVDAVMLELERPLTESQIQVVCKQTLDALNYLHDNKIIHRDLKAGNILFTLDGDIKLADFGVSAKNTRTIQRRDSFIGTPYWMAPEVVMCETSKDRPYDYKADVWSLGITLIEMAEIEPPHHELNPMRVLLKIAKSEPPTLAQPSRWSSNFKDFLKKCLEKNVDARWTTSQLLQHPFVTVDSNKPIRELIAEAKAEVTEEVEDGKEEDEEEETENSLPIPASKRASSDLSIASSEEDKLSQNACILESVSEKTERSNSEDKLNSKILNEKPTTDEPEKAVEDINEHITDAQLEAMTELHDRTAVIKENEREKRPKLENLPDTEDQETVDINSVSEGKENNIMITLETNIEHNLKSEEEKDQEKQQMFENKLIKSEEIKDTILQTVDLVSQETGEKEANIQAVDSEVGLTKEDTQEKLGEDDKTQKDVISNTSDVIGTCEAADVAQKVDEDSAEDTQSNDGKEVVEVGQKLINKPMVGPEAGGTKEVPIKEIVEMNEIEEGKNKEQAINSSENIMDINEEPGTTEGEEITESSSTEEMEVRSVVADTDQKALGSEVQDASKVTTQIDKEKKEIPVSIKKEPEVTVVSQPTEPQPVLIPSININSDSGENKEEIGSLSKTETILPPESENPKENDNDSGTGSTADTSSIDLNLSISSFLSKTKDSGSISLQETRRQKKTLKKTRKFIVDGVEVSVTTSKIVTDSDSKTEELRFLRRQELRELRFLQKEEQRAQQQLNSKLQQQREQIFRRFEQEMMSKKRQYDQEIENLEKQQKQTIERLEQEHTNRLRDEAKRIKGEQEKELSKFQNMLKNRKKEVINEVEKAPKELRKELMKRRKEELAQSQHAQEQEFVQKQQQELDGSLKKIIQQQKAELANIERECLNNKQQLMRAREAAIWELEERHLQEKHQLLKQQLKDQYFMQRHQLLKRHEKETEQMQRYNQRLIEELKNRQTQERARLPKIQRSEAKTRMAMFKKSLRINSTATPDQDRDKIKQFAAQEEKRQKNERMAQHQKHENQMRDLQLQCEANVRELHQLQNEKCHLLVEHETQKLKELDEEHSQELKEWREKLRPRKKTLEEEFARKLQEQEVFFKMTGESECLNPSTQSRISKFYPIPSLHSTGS

SNU-1079 = assay: proliferation of SNU-1079 cholangiocarcinoma cells; assay type: cell-based; conditions: SNU-1079 cell line; IC50 only in FIG. 3C-3E
WITT [2] = assay: proliferation of WITT cholangiocarcinoma cells; assay type: cell-based; conditions: WITT cell line; IC50 only in FIG. 3C-3E
AKT S473 phosphorylation [3] = assay: AKT S473 phosphorylation in WITT cholangiocarcinoma cells; assay type: cell-based; conditions: WITT cell line, compared to control levels
WITT [4] = assay: tumor organoid assay, WITT; assay type: cell-based; conditions: tivozanib at 200 nM vs control
Experimental: (§1) Images of control are on the top row, whereas the effects of tivozanib at 200 nM are shown in the bottom row where the tumor organoids are smaller and fewer than in the control.

[5] = tested on: liver metastasis from a patient with XPO7-expressing cholangiocarcinoma; assay: ex vivo tumor SMART platform, H&E and Ki67 staining; assay type: cell-based, human
Experimental: Finally, tivozanib was evaluated in the ex vivo tumor SMART platform described in International Patent Application No. WO2021/183527 which is incorporated by reference herein for all purposes. A liver metastasis from a patient with XPO7-expressing cholangiocarcinoma was evaluated using H&E staining and Ki67 staining to contrast treatment with control versus tivozanib.

c-kit = c-kit (Homo sapiens, UniProt P10721); conditions: at clinically relevant concentrations; cited from earlier work
c-kit, sequence (P10721 26-976): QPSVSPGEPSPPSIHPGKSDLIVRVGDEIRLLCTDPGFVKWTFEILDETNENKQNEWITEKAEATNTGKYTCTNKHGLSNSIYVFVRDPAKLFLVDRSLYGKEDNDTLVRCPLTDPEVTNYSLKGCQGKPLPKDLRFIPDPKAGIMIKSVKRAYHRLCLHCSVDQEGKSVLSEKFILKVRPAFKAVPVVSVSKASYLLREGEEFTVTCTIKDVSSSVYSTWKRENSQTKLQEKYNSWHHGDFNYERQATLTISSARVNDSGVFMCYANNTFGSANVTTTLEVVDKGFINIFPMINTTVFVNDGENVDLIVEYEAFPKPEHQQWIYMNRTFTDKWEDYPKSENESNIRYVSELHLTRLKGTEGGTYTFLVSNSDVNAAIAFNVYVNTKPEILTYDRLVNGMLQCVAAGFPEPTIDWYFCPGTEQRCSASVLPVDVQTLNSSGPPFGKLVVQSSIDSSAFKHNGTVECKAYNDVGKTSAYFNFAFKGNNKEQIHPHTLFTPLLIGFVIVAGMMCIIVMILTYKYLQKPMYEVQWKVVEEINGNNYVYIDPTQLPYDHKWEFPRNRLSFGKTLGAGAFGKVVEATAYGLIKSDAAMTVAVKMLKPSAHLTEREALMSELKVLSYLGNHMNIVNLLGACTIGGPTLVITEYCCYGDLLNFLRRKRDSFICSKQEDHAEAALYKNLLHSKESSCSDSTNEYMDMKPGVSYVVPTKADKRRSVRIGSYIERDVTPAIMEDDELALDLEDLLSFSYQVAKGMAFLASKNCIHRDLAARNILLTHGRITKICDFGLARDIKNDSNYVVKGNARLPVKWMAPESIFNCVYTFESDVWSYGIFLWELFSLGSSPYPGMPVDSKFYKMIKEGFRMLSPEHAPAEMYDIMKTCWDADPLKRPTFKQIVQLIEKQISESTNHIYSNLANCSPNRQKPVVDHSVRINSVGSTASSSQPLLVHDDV

EGI-1 [6] = assay: proliferation of EGI-1 cholangiocarcinoma cells; assay type: cell-based; conditions: EGI-1 cell line; IC50 only in FIG. 3C-3E
AKT S473 phosphorylation [7] = assay: AKT S473 phosphorylation in SNU-1079 cholangiocarcinoma cells; assay type: cell-based; conditions: SNU-1079 cell line, compared to control levels
EGI-1 [8] = assay: tumor organoid assay, EGI-1; assay type: cell-based; conditions: tivozanib at 200 nM vs control
Experimental: as §1

AKT S473 phosphorylation [9] = assay: AKT S473 phosphorylation in EGI-1 cholangiocarcinoma cells; assay type: cell-based; conditions: EGI-1 cell line, compared to control levels
VEGFR-3 = VEGFR-3 (Homo sapiens, UniProt P35916); conditions: at clinically relevant concentrations; cited from earlier work
VEGFR-3, sequence (P35916 25-1363): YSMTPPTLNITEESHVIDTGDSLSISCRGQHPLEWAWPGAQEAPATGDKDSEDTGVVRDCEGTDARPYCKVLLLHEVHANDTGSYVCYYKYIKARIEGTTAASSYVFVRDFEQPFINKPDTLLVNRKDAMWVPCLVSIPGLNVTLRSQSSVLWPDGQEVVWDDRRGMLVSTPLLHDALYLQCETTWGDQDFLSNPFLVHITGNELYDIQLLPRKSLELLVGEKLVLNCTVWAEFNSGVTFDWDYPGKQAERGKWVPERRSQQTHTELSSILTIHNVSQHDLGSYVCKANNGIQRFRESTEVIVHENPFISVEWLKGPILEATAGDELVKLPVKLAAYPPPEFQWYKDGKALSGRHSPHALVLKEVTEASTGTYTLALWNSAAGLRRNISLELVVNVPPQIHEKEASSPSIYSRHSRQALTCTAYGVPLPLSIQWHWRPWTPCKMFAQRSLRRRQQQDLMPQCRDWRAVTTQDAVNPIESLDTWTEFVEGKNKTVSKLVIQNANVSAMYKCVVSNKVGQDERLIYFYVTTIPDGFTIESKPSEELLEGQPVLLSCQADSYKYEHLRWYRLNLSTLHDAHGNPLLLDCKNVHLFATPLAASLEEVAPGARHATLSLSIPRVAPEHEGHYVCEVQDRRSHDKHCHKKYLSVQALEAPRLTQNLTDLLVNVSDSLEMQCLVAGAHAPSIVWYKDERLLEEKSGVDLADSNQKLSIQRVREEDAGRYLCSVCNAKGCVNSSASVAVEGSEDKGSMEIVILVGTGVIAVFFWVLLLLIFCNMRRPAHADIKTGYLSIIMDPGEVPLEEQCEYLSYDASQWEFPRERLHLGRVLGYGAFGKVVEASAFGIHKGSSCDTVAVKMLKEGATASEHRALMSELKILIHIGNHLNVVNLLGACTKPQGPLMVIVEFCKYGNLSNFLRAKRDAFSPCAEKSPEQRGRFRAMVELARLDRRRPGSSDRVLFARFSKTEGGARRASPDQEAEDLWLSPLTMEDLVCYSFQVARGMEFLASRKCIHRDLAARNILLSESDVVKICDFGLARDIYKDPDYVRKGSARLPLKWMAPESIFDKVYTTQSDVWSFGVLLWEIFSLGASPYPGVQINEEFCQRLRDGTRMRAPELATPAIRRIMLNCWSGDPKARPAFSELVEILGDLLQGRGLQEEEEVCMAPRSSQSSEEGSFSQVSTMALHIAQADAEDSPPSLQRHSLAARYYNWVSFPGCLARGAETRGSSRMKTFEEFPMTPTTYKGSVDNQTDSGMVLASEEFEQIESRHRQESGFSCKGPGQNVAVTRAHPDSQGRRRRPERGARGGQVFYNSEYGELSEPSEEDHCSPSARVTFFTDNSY

PDGFR β = PDGFR β (Homo sapiens, UniProt P09619); conditions: at clinically relevant concentrations; cited from earlier work
PDGFR β, sequence (P09619 33-1106): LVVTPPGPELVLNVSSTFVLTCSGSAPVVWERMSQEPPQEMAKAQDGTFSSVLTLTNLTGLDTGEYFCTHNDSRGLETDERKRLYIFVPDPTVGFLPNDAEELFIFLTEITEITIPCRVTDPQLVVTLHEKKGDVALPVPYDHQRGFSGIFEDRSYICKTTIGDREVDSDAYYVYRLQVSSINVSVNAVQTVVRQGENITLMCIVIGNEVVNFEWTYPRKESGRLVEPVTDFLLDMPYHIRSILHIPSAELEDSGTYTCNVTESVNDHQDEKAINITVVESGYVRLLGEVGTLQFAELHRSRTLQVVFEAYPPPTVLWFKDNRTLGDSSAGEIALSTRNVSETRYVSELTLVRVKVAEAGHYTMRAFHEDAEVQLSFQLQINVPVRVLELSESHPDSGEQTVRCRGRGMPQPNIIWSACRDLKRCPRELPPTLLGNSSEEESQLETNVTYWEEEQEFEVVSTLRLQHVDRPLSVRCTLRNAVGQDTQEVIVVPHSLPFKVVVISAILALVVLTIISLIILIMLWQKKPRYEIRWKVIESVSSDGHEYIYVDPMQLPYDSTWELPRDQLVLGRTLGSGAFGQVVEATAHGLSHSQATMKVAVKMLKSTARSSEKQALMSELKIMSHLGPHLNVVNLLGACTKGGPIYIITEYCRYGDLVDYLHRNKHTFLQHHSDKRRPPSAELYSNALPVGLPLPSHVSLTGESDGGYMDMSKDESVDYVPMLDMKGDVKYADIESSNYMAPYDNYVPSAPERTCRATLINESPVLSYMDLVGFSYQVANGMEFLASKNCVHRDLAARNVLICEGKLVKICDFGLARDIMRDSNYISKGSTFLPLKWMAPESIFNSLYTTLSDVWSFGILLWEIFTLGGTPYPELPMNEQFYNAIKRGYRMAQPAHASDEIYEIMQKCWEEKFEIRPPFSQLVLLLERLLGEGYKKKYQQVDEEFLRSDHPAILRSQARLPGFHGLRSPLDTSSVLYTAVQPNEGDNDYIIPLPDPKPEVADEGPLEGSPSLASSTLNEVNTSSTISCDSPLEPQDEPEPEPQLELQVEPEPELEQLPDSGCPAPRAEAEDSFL

SNU-1070 = assay: tumor organoid assay, SNU-1070 (SNU-1079); assay type: cell-based; conditions: SNU-1070 as printed; tivozanib at 200 nM vs control
Experimental: as §1

[10] = patients on Tivozanib; cited from earlier work
[11] = cited from earlier work

Compound: bevacizumab: an anti-VEGF antibody
- average tumor volume vs control group (EGI-1 cell line; bevacizumab, standard murine dose, 28 days of treatment): statistically significantly smaller

Compound: COc1cc2nccc(Oc3ccc(NC(=O)Nc4cc(C)on4)c(Cl)c3)c2cc1OC [tivozanib, N-{2-chloro-4-[(6,7-dimethoxy-4-quinolyl)oxy]-phenyl}-N′-(5-methyl-3-isoxazolyl) urea]
- angiogenesis [1]: inhibited
- tumor growth [1]: inhibited
- inhibition of SLK (SLK): potent inhibitor of SLK
- proliferation (SNU-1079): inhibited proliferation
- proliferation (WITT [2]): inhibited proliferation
- tumor growth in vivo (EGI-1 cell line; EGI-1 subcutaneous xenograft): inhibited tumor growth
- final tumor volume vs control vehicle (EGI-1 cell line; tivozanib 20 mg/kg/day for 28 days, p value of <0.001): statistically significantly smaller in volume
- change in tumor volume over the course of treatment (EGI-1 cell line; waterfall plot FIG. 3I, compared to control): substantial change in tumor volume
- AKT S473 phosphorylation (AKT S473 phosphorylation [3]): inhibited AKT S473 phosphorylation
- tumor organoid formation (WITT [4]): abrogated tumor formation
- cell degeneration ([5]; 0.2 μg/mL tivozanib): statistically significant increased cell degeneration
- viable cells compared to control ([5]; 0.2 μg/mL tivozanib): fewer viable cells
- cell degeneration ([5]; 1 μg/mL tivozanib): statistically significant increased cell degeneration
- viable cells compared to control ([5]; 1 μg/mL tivozanib): fewer viable cells
- Ki67 staining (dark stained nuclei) ([5]; day 4, vs control tissue (0 μg/mL tivozanib)): reduction in dark stained nuclei
- cell death ([5]; higher dose level (1 μg/mL tivozanib)): statistically significant levels of cell death
- inhibition of c-kit (c-kit): inhibits
- proliferation (EGI-1 [6]): inhibited proliferation
- AKT S473 phosphorylation (AKT S473 phosphorylation [7]): inhibited AKT S473 phosphorylation
- tumor organoid formation (EGI-1 [8]): abrogated tumor formation
- AKT S473 phosphorylation (AKT S473 phosphorylation [9]): inhibited AKT S473 phosphorylation
- phosphorylation of VEGFR-3 (VEGFR-3): inhibits phosphorylation
- inhibition of PDGFR β (PDGFR β): inhibits
- tumor organoid formation (SNU-1070): abrogated tumor formation
- incidence of hypertension [10]: high incidence

Compound: COc1cc2nccc(Oc3ccc(NC(=O)Nc4cc(C)on4)c(Cl)c3)c2cc1OC [Tivozanib hydrochloride, 1-{2-chloro-4-[(6,7-dimethoxyquinolin-4-yl)oxy]phenyl}-3-(5-methylisoxazol-3-yl) urea hydrochloride hydrate]
- solubility in water [11]: practically insoluble in water
